# Measured values as given in ChEMBL document CHEMBL6103588, “Promising thiazolidinedione-thiazole based multi-target and neuroprotective hybrids for Alzheimer's disease: Design, synthesis, in-vitro, in-vivo and in-silico studies” (Eur J Med Chem, 2025).
# Key:
# [1] = Neurotoxicity against human SH-SY5Y cells assessed as reduction in cell viability upto 50 uM incubated for 24 hrs by MTT assay; assay type: toxicity, cell-based
# [2] = Acute toxicity in male Swiss albino mouse assessed as seizures at 1200 mg/kg BW, po administered as single dose via gavage measured after 20 mins by up-and-down method; assay type: organism-based; settings: in vivo
# [3] = Acute toxicity in male Swiss albino mouse assessed as signs of pain at 1200 mg/kg BW, po administered as single dose via gavage measured after 20 mins by up-and-down method; assay type: organism-based; settings: in vivo
# [4] = Acute toxicity in male Swiss albino mouse assessed as mortality rate at 1200 mg/kg BW, po administered as single dose via gavage measured after 48 hrs by up-and-down method relative to control; assay type: organism-based; settings: in vivo
# [5] = Acute toxicity in male Swiss albino mouse assessed as survival time at 50 mg/kg BW, po administered as single dose via gavage by up-and-down method; assay type: organism-based; settings: in vivo
# [6] = molecular target: T1, Amine oxidase [flavin-containing] B (Homo sapiens, UniProt P27338); experiment: Inhibition of human MAO-B using tyramine/benzylamine as substrate measured after 30 mins by fluorometric assay
# T1 sequence (P27338 whole entry): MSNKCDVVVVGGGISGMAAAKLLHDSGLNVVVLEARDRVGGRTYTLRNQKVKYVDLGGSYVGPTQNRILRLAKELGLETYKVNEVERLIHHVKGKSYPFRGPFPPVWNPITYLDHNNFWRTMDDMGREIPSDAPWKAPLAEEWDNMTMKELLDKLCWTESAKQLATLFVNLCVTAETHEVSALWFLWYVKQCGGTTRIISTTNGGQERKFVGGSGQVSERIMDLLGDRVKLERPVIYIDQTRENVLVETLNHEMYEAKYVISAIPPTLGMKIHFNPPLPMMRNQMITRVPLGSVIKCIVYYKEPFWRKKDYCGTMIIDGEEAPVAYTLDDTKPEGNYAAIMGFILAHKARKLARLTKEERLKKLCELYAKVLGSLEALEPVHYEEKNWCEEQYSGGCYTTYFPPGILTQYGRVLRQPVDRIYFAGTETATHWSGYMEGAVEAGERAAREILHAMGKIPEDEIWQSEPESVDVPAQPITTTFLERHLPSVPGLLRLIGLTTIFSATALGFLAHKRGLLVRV
# [7] = Acute toxicity in male Swiss albino mouse assessed as survival time at 900 mg/kg BW, po administered as single dose via gavage by up-and-down method; assay type: organism-based; settings: in vivo
# [8] = molecular target: T2, Amine oxidase [flavin-containing] A (Homo sapiens, UniProt P21397); experiment: Inhibition of human MAO-A using tyramine/benzylamine as substrate measured after 30 mins by fluorometric assay; settings: read-out: IC50
# T2 sequence (P21397 whole entry): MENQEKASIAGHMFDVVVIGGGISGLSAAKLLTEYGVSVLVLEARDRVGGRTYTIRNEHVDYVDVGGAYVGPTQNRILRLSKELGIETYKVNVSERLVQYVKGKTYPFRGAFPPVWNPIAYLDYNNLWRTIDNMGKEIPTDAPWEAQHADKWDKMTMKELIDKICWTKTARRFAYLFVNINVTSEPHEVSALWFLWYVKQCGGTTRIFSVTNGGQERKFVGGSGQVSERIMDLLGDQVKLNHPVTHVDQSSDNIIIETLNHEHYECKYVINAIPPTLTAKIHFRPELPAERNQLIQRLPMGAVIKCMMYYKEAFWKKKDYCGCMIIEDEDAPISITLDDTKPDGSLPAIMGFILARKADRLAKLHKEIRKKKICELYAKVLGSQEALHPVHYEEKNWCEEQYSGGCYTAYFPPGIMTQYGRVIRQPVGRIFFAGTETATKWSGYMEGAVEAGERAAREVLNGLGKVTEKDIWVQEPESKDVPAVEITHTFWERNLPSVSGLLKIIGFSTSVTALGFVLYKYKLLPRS
# [9] = molecular target: T3, Polyunsaturated fatty acid 5-lipoxygenase (Homo sapiens, UniProt P09917); experiment: Inhibition of 5-LOX (unknown origin) using linoleic acid as substrate incubated for 5 mins followed by substrate addition
# T3 sequence (P09917 whole entry): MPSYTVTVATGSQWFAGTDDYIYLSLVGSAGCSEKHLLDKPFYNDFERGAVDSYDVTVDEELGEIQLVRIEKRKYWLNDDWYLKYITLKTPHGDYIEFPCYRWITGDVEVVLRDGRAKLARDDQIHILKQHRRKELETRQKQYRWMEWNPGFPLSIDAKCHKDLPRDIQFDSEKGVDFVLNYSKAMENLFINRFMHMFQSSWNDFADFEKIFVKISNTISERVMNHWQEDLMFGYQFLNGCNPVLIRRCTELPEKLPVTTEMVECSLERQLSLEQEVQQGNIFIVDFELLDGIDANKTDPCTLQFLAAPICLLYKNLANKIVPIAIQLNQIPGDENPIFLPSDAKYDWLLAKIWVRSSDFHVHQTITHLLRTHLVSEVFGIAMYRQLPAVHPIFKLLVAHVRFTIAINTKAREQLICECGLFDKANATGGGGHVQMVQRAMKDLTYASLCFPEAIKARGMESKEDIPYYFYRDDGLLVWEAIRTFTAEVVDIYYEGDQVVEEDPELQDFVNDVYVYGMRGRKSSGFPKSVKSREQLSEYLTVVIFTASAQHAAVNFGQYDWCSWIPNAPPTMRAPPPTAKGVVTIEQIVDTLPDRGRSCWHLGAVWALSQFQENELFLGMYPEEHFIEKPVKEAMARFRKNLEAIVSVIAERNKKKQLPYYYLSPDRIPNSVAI
# [10] = Acute toxicity in male Swiss albino mouse assessed as mortality rate at 900 mg/kg BW, po administered as single dose via gavage measured after 48 hrs by up-and-down method relative to control; assay type: organism-based; settings: in vivo
# Mus musculus = experiment: Antioxidant activity against scopolamine-induced Albino mouse assessed as decrease in MDA level in brain at 5 mg/kg measured after 24 hrs; assay type: functional
# [11] = Acute toxicity in male Swiss albino mouse assessed as signs of distress at 1500 mg/kg BW, po administered as single dose via gavage measured after 48 hrs by up-and-down method; assay type: organism-based; settings: in vivo
# PC-12 = experiment: Neuroprotective activity against H2O2-induced rat PC12 cells assessed as protection against H2O2-induced oxidative stress by measuring cell viability at 25 uM pretreated for 24 hr followed by H2O2 addition and measured after 24 hrs by MTT reagent based spectrophotometric analysis (reference value: 47.32 %); assay type: functional; settings: time 48 hrs
# [12] = Acute toxicity in male Swiss albino mouse assessed as survival time at 1500 mg/kg BW, po administered as single dose via gavage by up-and-down method; assay type: organism-based; settings: in vivo
# Cholinesterase = Cholinesterase (Equus caballus, UniProt P81908); experiment: Inhibition of equine serum BuChE using butyrylthiocholine iodide as substrate pre-incubated for 10 mins followed by substrate addition and measured after 15 mins by DTNB reagent based Ellman's method
# Sequence of Cholinesterase (P81908 whole entry): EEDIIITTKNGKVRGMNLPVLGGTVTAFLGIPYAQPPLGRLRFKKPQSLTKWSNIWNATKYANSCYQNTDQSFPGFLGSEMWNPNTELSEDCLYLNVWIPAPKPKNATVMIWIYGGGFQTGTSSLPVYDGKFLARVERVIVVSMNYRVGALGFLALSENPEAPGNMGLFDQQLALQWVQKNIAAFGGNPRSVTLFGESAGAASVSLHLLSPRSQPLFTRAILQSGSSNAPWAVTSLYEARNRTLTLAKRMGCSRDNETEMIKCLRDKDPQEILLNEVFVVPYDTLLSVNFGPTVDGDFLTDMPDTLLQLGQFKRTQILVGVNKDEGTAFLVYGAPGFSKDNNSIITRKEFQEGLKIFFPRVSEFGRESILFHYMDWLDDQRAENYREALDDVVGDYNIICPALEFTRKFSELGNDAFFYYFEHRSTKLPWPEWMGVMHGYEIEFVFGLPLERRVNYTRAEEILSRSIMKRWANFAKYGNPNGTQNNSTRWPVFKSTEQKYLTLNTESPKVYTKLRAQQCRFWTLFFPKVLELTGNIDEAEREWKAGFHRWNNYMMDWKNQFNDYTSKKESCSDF
structure (smiles),measurement,setting,value
COc1cc(/C=C/C(=O)Nc2ccc3sc(NCN4C(=O)CSC4=O)nc3c2)ccc1O,Activity,[1],Non-toxic
same,Activity,[2],Toxic
same,Activity,[3],Toxic
same,mortality at 48 h,[4],80%
same,Time,[5],> 48 h
same,IC50,[6],0.024 µM
same,Time,[7],2 h
same,IC50,[8],14.5 µM
same,IC50,[9],0.18 µM
same,mortality at 48 h,[10],66.7%
same,Activity,Mus musculus,1.95 nmol/mL
same,Activity,[11],Toxic
same,Activity,PC-12,83.01%
same,Time,[12],15 min
same,IC50,Cholinesterase,9.81 µM
